Assay results taken from patent US8609731B2, “Substituted tetrahydronaphthalenes, process for the preparation thereof and the use thereof as medicaments” (SANOFI, priority 2007, dated 2013).

Biological target: T1, human MCH receptor (Homo sapiens, UniProt Q99705)
T1 construct: expressed in transfected cells
Experiment: calcium mobilization assay (FLIPR); functional IC50 of MCH1R antagonists
Assay type: cell-based
Details: recombinant HEK293 cell line expressing human MCH receptor; calcium flux after addition of agonist MCH
Description: Influence on the MCH Receptor In Vitro; Determination of Functional IC50 Values of MCH1R Antagonists
Cloning of the cDNA for the human MCH receptor, preparation of a recombinant HEK293 cell line which expresses the human MCH receptor, and functional measurements with the recombinant cell line took place in analogy to the description by Audinot et al. (J. Biol. Chem. 2001, 276, 13554-13562). A difference from the reference was, however, the use of the plasmid pEAK8 from EDGE Biosystems (USA) for the construction of the expression vector. The host used for the transfection was a transformed HEK cell line named “PEAK Stable Cells” (likewise from EDGE Biosystems). Functional measurements of the cellular calcium flux after addition of agonist (MCH) in the presence of ligand of the invention took place with the aid of the FLIPR apparatus from Molecular Devices (USA), using protocols of the apparatus manufacturer. The compounds of the invention show a significant inhibition (>30%) of the signal induced by the agonist at a concentration of 100 μM, preferably at 10 μM, particularly preferably at 1 μM, very particularly preferably at 100 nM and very very particularly preferably at 10 nM.

T1 sequence (Q99705 whole entry): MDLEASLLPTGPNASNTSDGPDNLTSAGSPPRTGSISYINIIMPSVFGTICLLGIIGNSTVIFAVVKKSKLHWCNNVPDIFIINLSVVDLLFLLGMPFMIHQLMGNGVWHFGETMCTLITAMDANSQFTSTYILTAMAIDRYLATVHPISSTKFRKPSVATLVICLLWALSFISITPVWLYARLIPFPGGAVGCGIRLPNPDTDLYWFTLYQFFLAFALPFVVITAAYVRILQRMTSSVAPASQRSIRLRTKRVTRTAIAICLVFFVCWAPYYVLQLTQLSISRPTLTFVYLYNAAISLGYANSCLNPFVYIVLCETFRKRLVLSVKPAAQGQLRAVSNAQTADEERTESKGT

| Compound | IC50 [nM] |
| --- | --- |
| CN(C(=O)c1ccc(OC[C@@H]2CCCO2)cc1)[C@H]1CCc2cc(CN3CCCC3)ccc2C1 [Example 2, N-Methyl-N-((S)-6-pyrrolidin-1-ylmethyl-1,2,3,4-tetrahydronaphthalen-2-yl)-4-[(S)-1-(tetrahydrofuran-2-yl)methoxy]benzamide] | 670 |
| O=C(N[C@@H]1CCc2cc(CN3CCCC3)ccc2C1)c1ccc(OC[C@@H]2CCCO2)cc1 [Example 3-2] | 3290 |
| O=C(N[C@H]1CCc2cc(CN3CC4CCCC4C3)ccc2C1)c1ccc(OC[C@@H]2CCCO2)cc1 (stereo partly shown) [Example 3-14] | 100 |
| COC(=O)CNCc1ccc2c(c1)CC[C@H](NC(=O)c1ccc(OC[C@@H]3CCCO3)cc1)C2 [Example 3-26] | 360 |
| O=C(N[C@H]1CCc2cc(CNCCCn3ccnc3)ccc2C1)c1ccc(OC[C@@H]2CCCO2)cc1 [Example 3-32] | 130 |
| O=C(N[C@H]1CCc2cc(CNCCCN3CCCC3=O)ccc2C1)c1ccc(OC[C@@H]2CCCO2)cc1 [Example 3-33] | 270 |
| CN1CCN(Cc2ccc3c(c2)CC[C@H](NC(=O)c2ccc(OC[C@@H]4CCCO4)cc2)C3)CC1 [Example 3-37] | 340 |
| O=C(N[C@H]1CCc2cc(CN3CCC(O)CC3)ccc2C1)c1ccc(OC[C@@H]2CCCO2)cc1 [Example 3-40] | 180 |
| CC(=O)N1CCN(Cc2ccc3c(c2)CC[C@H](NC(=O)c2ccc(OC[C@@H]4CCCO4)cc2)C3)CC1 [Example 3-44] | 310 |
| O=C(N[C@H]1CCc2cc(CN3C[C@H]4CC[C@H](CC4)C3)ccc2C1)c1ccc(OC[C@@H]2CCCO2)cc1 [Example 3-48] | 210 |
| Cc1ccc(CNCc2ccc3c(c2)CC[C@H](NC(=O)c2ccc(OC[C@@H]4CCCO4)cc2)C3)o1 [Example 3-51] | 190 |
| O=C(N[C@H]1CCc2cc(CNCC3OCCO3)ccc2C1)c1ccc(OC[C@@H]2CCCO2)cc1 [Example 3-61] | 300 |
| CS(=O)(=O)CCNCc1ccc2c(c1)CC[C@H](NC(=O)c1ccc(OC[C@@H]3CCCO3)cc1)C2 [Example 3-64] | 180 |
| Cc1cc(CNCc2ccc3c(c2)CC[C@H](NC(=O)c2ccc(OC[C@@H]4CCCO4)cc2)C3)no1 [Example 3-71] | 750 |
| O=C1CN(Cc2ccc3c(c2)CC[C@H](NC(=O)c2ccc(OC[C@@H]4CCCO4)cc2)C3)CCN1 [Example 3-72] | 1850 |

Second part, the compound after the results:

| IC50 [nM] | Compound |
| --- | --- |
| 120 | O=C(N[C@H]1CCc2cc(CN3CCCOCC3)ccc2C1)c1ccc(OC[C@@H]2CCCO2)cc1 [Example 3-77] |
| 170 | N#CC1CCN(Cc2ccc3c(c2)CC[C@H](NC(=O)c2ccc(OC[C@@H]4CCCO4)cc2)C3)CC1 [Example 3-84] |
| 120 | O=C(N[C@H]1CCc2cc(CN3CC[C@@H](F)C3)ccc2C1)c1ccc(OC[C@@H]2CCCO2)cc1 [Example 3-86] |
| 330 | O=C(N[C@H]1CCc2cc(CN3C[C@@H]4C[C@H]3CO4)ccc2C1)c1ccc(OC[C@@H]2CCCO2)cc1 [Example 3-100] |
| 200 | COc1ccc(CNCc2ccc3c(c2)CC[C@H](NC(=O)c2ccc(OC[C@@H]4CCCO4)cc2)C3)cn1 [Example 3-103] |
| 2410 | O=C(N[C@H]1CCc2cc(CN3CCn4cnnc4C3)ccc2C1)c1ccc(OC[C@@H]2CCCO2)cc1 [Example 3-120] |
| 150 | CC(C)(C)CNCCc1ccc2c(c1)CC[C@H](NC(=O)c1ccc(OC[C@@H]3CCCO3)cc1)C2 [Example 3-135] |
| 90 | O=C(N[C@H]1CCc2cc(CN3CCC4(CCCC4)C3)ccc2C1)c1ccc(OC[C@@H]2CCCO2)cc1 [Example 3-194] |
| 110 | CC1(CNCc2ccc3c(c2)CC[C@H](NC(=O)c2ccc(OC[C@@H]4CCCO4)cc2)C3)CCCC1 [Example 3-195] |
| 240 | CC(C)(C)CNC(C)(C)c1ccc2c(c1)CC[C@H](NC(=O)c1ccc(OC[C@@H]3CCCO3)cc1)C2 [Example 8-1, N-{(S)-6-[1-(2,2-Dimethylpropylamino)-1-methylethyl]-1,2,3,4-tetrahydro-naphthalen-2-yl}-4-[(S)-1-(tetrahydrofuran-2-yl)methoxy]benzamide] |
